Reference: patent publication US6984729B1, “Oligonucleotides specific for hepatitis B virus” (priority 1995, dated 2006)
Strand notation (5' to 3'): a small letter for the sugar, then the base; units joined by * are phosphorothioate-linked, units joined directly phosphodiester-linked; [ ] holds rarer units or linkages, { } end groups; capitals alone tell only the bases. d = 2'-deoxy (DNA)

How the values were obtained:
[1] = test system: internally 32P-labelled HBV precore-core RNA (epsilon region); experiment: RNase H cleavage of HBV precore-core RNA with noncontiguous oligonucleotides targeted to the epsilon region; type: biochemical, hepatitis B virus; details: for total RNA cleavage by RNase H: 10+10 and 12+12 noncontiguous oligonucleotides versus mixtures of arms, FIGS. 5A, 6A; for double cleavage (twice cleaved product) by RNase H on both sides of the epsilon stem: FIGS. 5B, 6B
Procedure: To determine whether an oligonucleotide of the invention is capable of successfully hybridizing to its target, an RNase H assay was performed (Frank et al. (1993) Proc. Int. Conf. Nucleic Acid Med. Applns. 1:4.14(abstract)). This assay is useful when a region of at least four contiguous nucleotides of the oligonucleotide is DNA and the target is RNA. Hybridization of the DNA portion of the oligonucleotide to the RNA target is identified by cleavage at that site by RNase H.
Noncontiguous oligonucleotides targeted to the HBV epsilon region have also been prepared and tested. The epsilon region is characterized by an RNA stem-loop structure consisting primarily of double-stranded RNA with a single-stranded bulge and loop of 6 bases each (FIG. 3). […] The ability of RNase H to cleave an RNA in this manner inflicts greater damage on the RNA than normal antisense oligodeoxynucleotides, while allowing the targeting of a biologically important region that is otherwise difficult to target due to its double-stranded nature.
Based on this information, several oligodeoxynucleotide phosphorothioates were prepared to test the hypothesis that hybridization by mode B is preferred when spanning the base of an RNA stem. 20mer and 24mer noncontiguous oligonucleotides (Table 2) were prepared as well as the 10mers and 12mers corresponding to the “arms” of the noncontiguous sequences.
If a single oligodeoxynucleotide were able to bind across the base of epsilon to sequences on either side of the stem, RNase H might cleave both sites and effectively cut out the epsilon stem-loop from the RNA. […] The 12+12 noncontiguous phosphorothioates show the same ability to bind across the base of the RNA stem. […] Double cleavage of the transcript in the presence of the mixture of 12mer arms (HBV71+HBV72) was much slower (FIG. 6B).
When oligonucleotides hybridizing via mode B were lengthened to allow strand invasion of the RNA stem, disruption of the stem-loop structure occurred. Oligonucleotides HBV89 (SEQ ID NO:39), HBV90 (SEQ ID NO:40), and HBV91 (SEQ ID NO:41) bind across the base of epsilon via mode B and strand invade on either the 5 side (HBV89) or the 3′ side (HBV90 and HBV91) of the RNA stem. HBV89M is an extension of HBV64M with ten 2′-O-methyl RNA residues invading the RNA stem on the 5′-side. Addition of these strand invading nucleotides increased the cleavage efficiency from 23% to 32% at 100 nM oligonucleotide.
Uniformally ^32P-labelled RNA was prepared from 1 μg linearized plasmid using the Ambion MEGAscript In Vitro Transcription Kit (Ambion, Inc., Austin, Tex.) according to the manufacturers' instructions, using [α-^32p] CTP as the radioactive label. The RNA was treated with RNase-free DNase I (Ambion, Inc., Austin, Tex.), extracted with phenol:chloroform: isoamyl alcohol (25:24:1) and purified from nucleotides and nucleosides on a G-50 Sephadex spin column (Boehringer-Mannheim, Indianapolis, Ind., or Pharmacia, Uppsala, Sweden).
In 9 μl 1× RNase H buffer (40 mM Tris-HCl pH 7.4, 4 mM MgCl2, 1 mM DTT), 20–100 nM labelled RNA and 100 nM oligonucleotides were preincubated for 15 min at 37° C. 1 μl RNase H (1 U/μl) was added, and the reaction was incubated at 37° C. for 10 min. The reactions were quenched and analyzed as described above.
Quantitation of the cleavage products was performed using software supplied with the Phosphorimager (Molecular Dynamics, Sunnyvale, Calif., or Bio-Rad Laboratories, Hercules, Calif.). “Counts” were determined by drawing a box around the band of interest and subtracting the background determined with a box drawn nearby. Counts in a product band were compared to total counts in the lane above that band to determine % cleavage.

[2] = test system: HBV genomes in the supernatants from HepG2.2.15 cells; experiment: Kinetic PCR HBV anti-viral assay on supernatants from HepG2.2.15 cells; type: cell-based, hepatitis B virus; details: copy number of HBV genomes in HepG2.2.15 supernatants, day 10
Procedure: In addition to Southern hybridizations, kinetic PCR was performed to assay the supernatants from the HepG2.2.15 cells. This procedure was carried out as described by Higuchi et al. (Biotechnol. (1993) 11:1026–1030). All PCRs were carried out with two sets of external controls which consisted of a dilution series of a known concentration of plasmid DNA that contained the HBV core gene amplified with the same primer set. These controls generated a standard curve that was used to calculate the copy number of HBV genomes in the supernatants from cells exposed to the various dilutions of compound.
The anti-viral assay was performed using HepG 2.2.15 cells (Sells et al. ([…]) Proc. Natl. Acad. Sci. (USA) 84:1005–1009) seeded at a density of 1×10^5 per well in 24 well plates. The cells were grown to confluence and allowed to stabilize for 2–3 days in RPMI media (supplemented with 10% fetal calf serum (FCS), 2 mM glutamine and penstrep (Life Technologies Ltd., Paisley, Scotland) prior to the addition of the oligonucleotide (defined as day 0). Six dilutions (10, 5, 1, 0.5, 0.1, and 0 μM) were set up in duplicate for each of the antisense oligonucleotides. In each assay run, the nucleoside analog, β-L-(2R,5S)-1,3 oxathiolanyl cytosine (3TC) (Glaxo, Greenford, U.K.) was included as positive control at 0.5, 0.1, 0.075, 0.05, and 0.01 and 0 μM in duplicate. Oligonucleotide was added to 1 ml of RPMI media (supplemented with 3% FCS, 2 mM glutamine and penstrep) at each of the indicated dilutions. At days 2, 4 and 7, the old media was removed and replaced with fresh media containing compound. At day 10, the supernatants were harvested, clarified by low speed centrifugation, prior to the addition of Triton X100 (Sigma, St. Louis, Mo.) and tri-n-butyl phosphate to give a final concentration of 1%. The samples were then heated to 70° C. for 20 minutes to disrupt the viral particles.
Following this treatment, the viral particles were subject to analysis by kinetic PCR. The primers RJ407 (SEQ ID NO:51) and RJ431 (SEQ ID NO:52) were used to detect a 205 bp fragment of the core gene. Kinetic PCR was performed essentially as described by Higuchi et al. (Biotechnol. (1993) 11:1026–1030). Briefly, the PCR reactions were set up under standard conditions except that ethidium bromide was included at a concentration of 4 μg/ml. […] A kinetic PCR analysis was performed by plotting the average intensity of fluorescence from each PCR sample after each annealing/extension cycle against the cycle number. The original template concentration can be calculated by utilizing a standard fluorescence curve generated by templates of known concentration.

HBVpol RNA = experiment: In vitro translation assay (wheat germ translation system); type: biochemical, hepatitis B virus; details: FIG. 8
Procedure: The oligonucleotides of the invention can be assayed for antisense inhibitory activity with a number of different assays. For example, an in vitro translation assay can be used to test antisense activity in which an antisense oligonucleotide can inhibit synthesis of a protein product encoded by the targeted mRNA. In such an assay, oligonucleotides targeted to the polymerase gene were tested against both target and an unrelated control RNA in the wheat germ translation system. […] Results are represented graphically in FIG. 7.
This assay was also used to compare the activity of mismatched oligonucleotides to the activity of the parent oligonucleotide. Four such oligonucleotides, all derivatives of HBVpol-2 (HBVpol-A, SEQ ID NO:46; HBVpol-B, SEQ ID NO:47; HBVpol-C, SEQ ID NO:48, HBVpol-D, SEQ ID NO:49) (Table 1) were synthesized and tested in the assay.
The 5′ end of the polymerase gene (pol) open reading frame, nt 2292–2942, was amplified by the PCR from the full length HBV clone pCH3/3097 (Bartenschlager et al. (1992) Nucleic Acids Res. 20:195–202). The 5′ amplification primer AS10 (SEQ ID NO:55) encoded an EcoRI site. The 3′ amplification primer AS11 (SEQ ID NO:56) both encoded a PstI site and introduced a stop codon in the place of a leucine codon at position 2942–2944. The PCR product was digested with EcoRI and PstI (Promega, Madison, Wis.) and inserted into similarly digested plasmid vector pGEM-3z (Promega, Madison, Wis.). The resulting recombinant plasmid was recut with PstI and an oligonucleot-ide dA:dT(30) linker was introduced.
B. In vitro Transcription of RNA pHBVpol and a second plasmid pHSVProt were linearized with HindIII (Promega, Madison, Wis.), RNA was in vitro transcribed from each construct using T7 Cap-Scribe reagents (Boehringer-Mannheim, Indianapolis, Ind.) employed as per the manufacturer's instructions. The quantity and quality of the RNA's was assessed on a 2% agarose/formaldehyde gel. The control HSVProt RNA was arbitrarily diluted 10 fold to 200 ng/μl and stored in 20 μl aliquots at −80° C.
In this series of experiments only phosphodiester (PO) oligonucleotides were used. 5 μM, 2.5 μM, and 1.25 μM stocks of each of HBVpol-1, HBVpol-2, HBVpol-3, and randomer were made up and stored frozen. Reactions were set up using 100 ng HBVpol and 200 ng pHSVprot. The volume of water in the translation master mix was reduced to allow the addition of 1 μl of each dilution of each oligonucleotide to the reactions whilst maintaining the final volume at 12 μl. This corresponds to final oligonucleotide concentrations of approximately 400 nM, 200 nM, and 100 nM.

AGAGATGATTTAAGGGTCGATGTCCATGCC (chemistry not given here) [HBV90]
strand invasion of the RNA stem evidenced by RNase H cleavage within the stem near the core initiator [1]: able to strand invade

AGGCAGAGGTTAAGGGTCGA (antisense dA*dG*dG*dC*dA*dG*dA*dG*dG*dT*dT*dA*dA*dG*dG*dG*dT*dC*dG*dA) [HBV66]
total RNA cleavage by RNase H [1]: activate RNase H cleavage of the transcript more effectively than the mixture of 10mer arms
double cleavage (twice cleaved product) by RNase H on both sides of the epsilon stem [1]: greater after 10 minutes than in the presence of HBV68

AGGCAGAGGTTAAGGGTCGATGTCCATGCC (phosphorothioate, further chemistry not given here) [HBV91]
strand invasion of the RNA stem evidenced by RNase H cleavage within the stem near the core initiator [1]: able to strand invade

GACAUGAACAAGAGAUGAUUTAAGGGTCGA (RNA letters in 5' part, chemistry not given here) [HBV89M]
cleavage efficiency ([1]; 100 nM oligonucleotide, RNase H): 32%

GAGGTGAAAAAGTTGCATGG (antisense dG*dA*dG*dG*dT*dG*dA*dA*dA*dA*dA*dG*dT*dT*dG*dC*dA*dT*dG*dG) [HBV48]
IC50 [2]: 700 nM

GATAGGGGCATTTGGTGcTC (antisense dG*dA*dT*dA*dG*dG*dG*dG*dC*dA*dT*dT*dT*dG*dG*dT*dG*dC*dT*dC) [HBVpol-C, single mismatch derivative of HBVpol-2]
antisense activity of mismatched oligonucleotides compared to parent HBVpol-2 (HBVpol RNA): varying degrees of reduction in activity

GATAGGGGCcTTTGGTGGTC (antisense dG*dA*dT*dA*dG*dG*dG*dG*dC*dC*dT*dT*dT*dG*dG*dT*dG*dG*dT*dC) [HBVpol-B, single mismatch derivative of HBVpol-2]
antisense activity of mismatched oligonucleotides compared to parent HBVpol-2 (HBVpol RNA): varying degrees of reduction in activity

GAcAGGGGCATTTGGTGGTC (antisense dG*dA*dC*dA*dG*dG*dG*dG*dC*dA*dT*dT*dT*dG*dG*dT*dG*dG*dT*dC) [HBVpol-A, single mismatch derivative of HBVpol-2]
antisense activity of mismatched oligonucleotides compared to parent HBVpol-2 (HBVpol RNA): varying degrees of reduction in activity

GAcAGGGGCcTTTGGTGcTC (antisense dG*dA*dC*dA*dG*dG*dG*dG*dC*dC*dT*dT*dT*dG*dG*dT*dG*dC*dT*dC) [HBVpol-D, three mismatches, derivative of HBVpol-2, reference compound]
antisense activity of mismatched oligonucleotides compared to parent HBVpol-2 (HBVpol RNA): abrogated antisense activity

TAAGGGTCGAAGGCAGAGGT (antisense dT*dA*dA*dG*dG*dG*dT*dC*dG*dA*dA*dG*dG*dC*dA*dG*dA*dG*dG*dT) [HBV68]
total RNA cleavage by RNase H [1]: activate RNase H cleavage of the transcript more effectively than the mixture of 10mer arms

TATAAGGGTCGAAGGCAGAGGTGA (antisense dT*dA*dT*dA*dA*dG*dG*dG*dT*dC*dG*dA*dA*dG*dG*dC*dA*dG*dA*dG*dG*dT*dG*dA) [HBV79]
total RNA cleavage by RNase H [1]: equal
double cleavage (twice cleaved product) by RNase H on both sides of the epsilon stem [1]: efficiently activate RNase H cleavage on both sides of the stem after only 1.5 minutes

TCGATGTCCATGCCCCAAAG (phosphorothioate, further chemistry not given here) [HBV4]
IC50 [2]: 1200 nM
